In brackets after ≈: the same amount, converted by molar mass.
Key:
Bacillus subtilis = assay: MIC, microdilution method, reference strains; assay type: cell-based; conditions: read after 24/48 hours of incubation at 37° C.
Protocol: (§1) Antibacterial activity was measured using a standard microdilution method, showing the minimum inhibitory concentration (MIC) of the test sample which results in inhibition of bacterial growth. Disposable microtiter plates were used for the tests. Samples are dissolved in the brain-heart infusion broth (HiMedia Laboraties Pvt. Ltd., Czech Republic), and Mueller Hinton broth (HiMedia Laboraties, see above) at a final concentration ranging from 200 μg/ml to 1.5625 μg/ml. Plates were inoculated with a standard amount of test bacteria-inoculum density in the hole corresponds to 10^5-6 CFU/ml (colony forming units/ml). MIC values are read after 24/48 hours of incubation at 37° C. as the minimum inhibitory concentration of the test substance at which the growth of bacteria is inhibited. Minimal bactericidal concentration (MBC) is defined as the minimum concentration of the sample needed to achieve irreversible inhibition, therefore killing the bacteria after a defined time of incubation. The MBC was determined by inoculation method. 10 μl from the wells in a microplate with a defined concentration of test substance is taken with an applicator, and inoculated onto the surface of blood agar (Trios, Czech Republic) and Sabouraud agar (Trios, CR). The MBC was determined as the lowest concentration that inhibited visible growth of the bacteria used. Standard reference bacterial strains (Escherichia coli CCM 3954, Pseudomonas aeruginosa CCM 3955, Enterococcus faecalis CCM 4224, Staphylococcus aureus CCM 4223) were obtained from the Czech Collection of Microorganisms (CCM) at […] University in Brno. Streptococcus agalactiae, Bacillus subtilis were obtained from the University Hospital Olomouc. The tested microorganisms were maintained in cryobanks (ITEST plus, Czech Republic) at -80° C.

[1] = system: Enterococcus faecalis CCM 4224; assay: MIC, microdilution method, reference strains; assay type: cell-based; conditions: CCM4224, read after 24/48 hours of incubation at 37° C.
Protocol: as §1

[2] = system: Escherichia coli CCM 3954; assay: MIC, microdilution method, reference strains; assay type: cell-based; conditions: CCM3954, read after 24/48 hours of incubation at 37° C.
Protocol: as §1

[3] = system: Pseudomonas aeruginosa CCM 3955; assay: MIC, microdilution method, reference strains; assay type: cell-based; conditions: CCM3955, read after 24/48 hours of incubation at 37° C.
Protocol: as §1

[4] = system: Staphylococcus aureus CCM 4223; assay: MIC, microdilution method, reference strains; assay type: cell-based; conditions: CCM4223, read after 24/48 hours of incubation at 37° C.
Protocol: as §1

Streptococcus agalactiae = assay: MIC, microdilution method, reference strains; assay type: cell-based; conditions: read after 24/48 hours of incubation at 37° C.
Protocol: as §1

E. coli 16702 = assay: MIC, microdilution method, resistant strains; assay type: cell-based; conditions: Escherichia coli, resistant strain, clinical isolate
Protocol: (§2) Antibacterial activity was measured using a standard microdilution method, showing the minimum inhibitory concentration (MIC) of the test sample which results in inhibition of bacterial growth. Disposable microtiter plates were used for the tests. Samples are dissolved in the brain-heart infusion broth (HiMedia Laboraties Pvt. Ltd., Czech Republic), and Mueller Hinton broth (HiMedia Laboraties, see above) at a final concentration ranging from 200 μg/ml to 1.5625 μg/ml. Plates were inoculated with a standard amount of test bacteria—inoculum density in the hole corresponds to 10^5-6 CFU/ml (colony forming units/ml). MIC values are read after 24/48 hours of incubation at 37° C. as the minimum inhibitory concentration of the test substance at which the growth of bacteria is inhibited. Minimal bactericidal concentration (MBC) is defined as the minimum concentration of the sample needed to achieve irreversible inhibition, therefore killing the bacteria after a defined time of incubation. The MBC was determined by inoculation method. 10 μl from the wells in a microplate with a defined concentration of test substance is taken with an applicator, and inoculated onto the surface of blood agar (Trios, Czech Republic) and Sabouraud agar (Trios, CR). The MBC was determined as the lowest concentration that inhibited visible growth of the bacteria used.

E. faecium VanA 419ana = assay: MIC, microdilution method, resistant strains; assay type: cell-based; conditions: Enterococcus faecium, VANA419ANA; vancomycin-resistant strain, clinical isolate
Protocol: as §2

P. aeruginosa 16575 = assay: MIC, microdilution method, resistant strains; assay type: cell-based; conditions: Pseudomonas aeruginosa, resistant strain, clinical isolate
Protocol: as §2

S. aureus MRSA 4591 = assay: MIC, microdilution method, resistant strains; assay type: cell-based; conditions: Staphylococcus aureus, methicillin-resistant strain, clinical isolate
Protocol: as §2

S. epidermidis 8700B = assay: MIC, microdilution method, resistant strains; assay type: cell-based; conditions: Staphylococcus epidermidis, methicilin-resistant strain, clinical isolate
Protocol: as §2

S. haemolyticus 16568 = assay: MIC, microdilution method, resistant strains; assay type: cell-based; conditions: Staphylococcus haemolyticus, fluoroquinolone-resistant strain, clinical isolate
Protocol: as §2

[5] = system: Acinetobacter baumanii A3-08; assay: MIC, microdilution method; assay type: cell-based; conditions: Acinetobacter baumannii, A308; read after 24/48 hours of incubation at 37° C.
Protocol: as §2

[6] = system: Burkholderia multivorans ATCC BAA-247; assay: MIC, microdilution method; assay type: cell-based; conditions: ATCCBAA247, read after 24/48 hours of incubation at 37° C.
Protocol: as §2

[7] = system: Salmonella Enteritidis S2-25; assay: MIC, microdilution method; assay type: cell-based; conditions: Salmonella enterica, read after 24/48 hours of incubation at 37° C.
Protocol: as §2

[8] = system: Stenotrophomonas matophilia S2-23; assay: MIC, microdilution method; assay type: cell-based; conditions: S223, read after 24/48 hours of incubation at 37° C.
Protocol: as §2

rabbits = assay: OECD404 test for skin irritation in rabbits; assay type: in vivo
mice = assay: Maximum tolerated dose in mice, oral administration; assay type: in vivo
Protocol: Maximum tolerated dose in mice was very high, for the compound of Example 3 and oral administration the maximum tolerated dose was 1500 mg/kg of bodyweight.

| SMILES | MIC (Bacillus subtilis) [µg/mL] | MIC [1] [µg/mL] | MIC [2] [µg/mL] | MIC [3] [µg/mL] | MIC [4] [µg/mL] | MIC (Streptococcus agalactiae) [µg/mL] | MIC (E. coli 16702) [µg/mL] | MIC (E. faecium VanA 419ana) [µg/mL] | MIC (P. aeruginosa 16575) [µg/mL] | MIC (S. aureus MRSA 4591) [µg/mL] | MIC (S. epidermidis 8700B) [µg/mL] | MIC [5] [µg/mL] | MIC [6] [µg/mL] | MIC [7] [µg/mL] | MIC [8] [µg/mL] | MIC (S. haemolyticus 16568) [µg/mL] | skin irritation (rabbits) | maximum tolerated dose (mice) |
| --- | --- | --- | --- | --- | --- | --- | --- | --- | --- | --- | --- | --- | --- | --- | --- | --- | --- | --- |
| CCCCCCCCCCCCCCCCOP(=O)(CCN(CCCN)CCCN)OC[C@H]1O[C@@H](n2ccc(=O)[nH]c2=O)C(O)C1O (some centres unmarked) [Example 1, Hexadecyl-uridine-5′-yl-2-N-bis (3-aminopropyl)-2-aminoethyl phosphonate] | 0.78 (≈ 1.13 µM) | 50 (≈ 72.5 µM) | 3.12 (≈ 4.53 µM) | 6.25 (≈ 9.06 µM) | 12.5 (≈ 18.1 µM) | 3.12 (≈ 4.53 µM) | 3.12 (≈ 4.53 µM) | 25 (≈ 36.2 µM) | 3.12 (≈ 4.53 µM) | 25 (≈ 36.2 µM) | 3.12 (≈ 4.53 µM) |  |  |  |  | 3.12 (≈ 4.53 µM) |  |  |
| CCCCCCCCCCCCCCCOP(=O)(CCN(CCCN)CCCN)OC[C@H]1O[C@@H](n2ccc(=O)[nH]c2=O)C(O)C1O (some centres unmarked) [Example 2, Pentadecyl-uridine-5′-yl-2-N-bis(3-aminopropyl)-2-aminoethyl phosphonate] | 1.56 (≈ 2.31 µM) | 50 (≈ 74 µM) | 6.25 (≈ 9.25 µM) | 3.12 (≈ 4.62 µM) | 6.25 (≈ 9.25 µM) | 3.12 (≈ 4.62 µM) | 6.25 (≈ 9.25 µM) | 25 (≈ 37 µM) | 3.12 (≈ 4.62 µM) | 12.5 (≈ 18.5 µM) | 6.25 (≈ 9.25 µM) | 6.25 (≈ 9.25 µM) | 12.5 (≈ 18.5 µM) | 3.12 (≈ 4.62 µM) | 3.12 (≈ 4.62 µM) | 3.12 (≈ 4.62 µM) |  |  |
| CCCCCCCCCCCCCCOP(=O)(CCN(CCCN)CCCN)OC[C@H]1O[C@@H](n2ccc(=O)[nH]c2=O)C(O)C1O (some centres unmarked) [Example 3, Tetradecyl-uridine-5′-yl-2-N-bis (3-aminopropyl)-2-aminoethyl phosphonate] | 0.78 (≈ 1.18 µM) | 25 (≈ 37.8 µM) | 6.25 (≈ 9.44 µM) | 0.78 (≈ 1.18 µM) | 6.25 (≈ 9.44 µM) | 3.12 (≈ 4.72 µM) | 3.12 (≈ 4.72 µM) | 100 (≈ 151 µM) | 1.56 (≈ 2.36 µM) | 6.25 (≈ 9.44 µM) | 1.56 (≈ 2.36 µM) | 25 (≈ 37.8 µM) | 200 (≈ 302 µM) | 6.25 (≈ 9.44 µM) | 50 (≈ 75.5 µM) | 1.56 (≈ 2.36 µM) | not an irritant | 1500 mg/kg of bodyweight |

Continued by falling MIC (Bacillus subtilis), values first:

| MIC (Bacillus subtilis) [µg/mL] | MIC [1] [µg/mL] | MIC [2] [µg/mL] | MIC [3] [µg/mL] | MIC [4] [µg/mL] | MIC (Streptococcus agalactiae) [µg/mL] | MIC (E. coli 16702) [µg/mL] | MIC (E. faecium VanA 419ana) [µg/mL] | MIC (P. aeruginosa 16575) [µg/mL] | MIC (S. aureus MRSA 4591) [µg/mL] | MIC (S. epidermidis 8700B) [µg/mL] | MIC [5] [µg/mL] | MIC [6] [µg/mL] | MIC [7] [µg/mL] | MIC [8] [µg/mL] | SMILES | MIC (S. haemolyticus 16568) [µg/mL] | skin irritation (rabbits) | maximum tolerated dose (mice) |
| --- | --- | --- | --- | --- | --- | --- | --- | --- | --- | --- | --- | --- | --- | --- | --- | --- | --- | --- |
| 3.12 (≈ 4.82 µM) | 50 (≈ 77.2 µM) | 25 (≈ 38.6 µM) | 3.12 (≈ 4.82 µM) | 12.5 (≈ 19.3 µM) | 6.25 (≈ 9.65 µM) | 50 (≈ 77.2 µM) | 100 (≈ 154 µM) | 25 (≈ 38.6 µM) | 25 (≈ 38.6 µM) | 12.5 (≈ 19.3 µM) | 50 (≈ 77.2 µM) | 50 (≈ 77.2 µM) | 50 (≈ 77.2 µM) | 50 (≈ 77.2 µM) | CCCCCCCCCCCCCOP(=O)(CCN(CCCN)CCCN)OC[C@H]1O[C@@H](n2ccc(=O)[nH]c2=O)C(O)C1O (some centres unmarked) [Example 4, Tridecyl-uridine-5′-yl-2-N-bis (3-aminopropyl)-2-aminoethyl phosphonate] | 6.25 (≈ 9.65 µM) |  |  |
| 3.12 (≈ 4.93 µM) | 100 (≈ 158 µM) | 25 (≈ 39.4 µM) | 3.12 (≈ 4.93 µM) | 25 (≈ 39.4 µM) | 12.5 (≈ 19.7 µM) | 25 (≈ 39.4 µM) | 200 (≈ 316 µM) | 12.5 (≈ 19.7 µM) | 50 (≈ 78.9 µM) | 12.5 (≈ 19.7 µM) |  |  |  |  | CCCCCCCCCCCCOP(=O)(CCN(CCCN)CCCN)OC[C@H]1O[C@@H](n2ccc(=O)[nH]c2=O)C(O)C1O (some centres unmarked) [Example 5, Dodecyl-uridine-5′-yl-2-N-bis (3-aminopropyl)-2-aminoethyl phosphonate] | 12.5 (≈ 19.7 µM) |  |  |
